For assay [1], the system named is Rous sarcoma virus, HIV-1, RSV, parainfluenza virus type 3, VSV, measles virus, and reovirus. The settings on record: shown previously [52, 53, 59]; cited from earlier work.
Assay [2] has as its system rgRSV or rgRSV-G1857A-G1853A. Format: cell-based, RSV A2 strain. Particulars: 15 μg/ml Cc3Ado; rgRSV and rgRSV-G1853A-G1857A-infected cells; day 3.
The test system of assay [3] is rgRSV or rgRSV-G1857A-G1853A. Format: cell-based, RSV A2 strain. Particulars: 50 μg/ml Cc3Ado, day 3.
Assay [4] deals with RIG-I. Format: cell-based, human.
Assay [5] has as its target T1, Recombinant human RIG-I protein (Homo sapiens, UniProt O95786).
T1 construct: trypsin treatment of the full-length RIG-I protein (approximately 110 kDa) yielded a 55-kDa RIG-I fragment; Flag; made in house; host or cells: HEK-293T
T1 sequence (O95786 1-925): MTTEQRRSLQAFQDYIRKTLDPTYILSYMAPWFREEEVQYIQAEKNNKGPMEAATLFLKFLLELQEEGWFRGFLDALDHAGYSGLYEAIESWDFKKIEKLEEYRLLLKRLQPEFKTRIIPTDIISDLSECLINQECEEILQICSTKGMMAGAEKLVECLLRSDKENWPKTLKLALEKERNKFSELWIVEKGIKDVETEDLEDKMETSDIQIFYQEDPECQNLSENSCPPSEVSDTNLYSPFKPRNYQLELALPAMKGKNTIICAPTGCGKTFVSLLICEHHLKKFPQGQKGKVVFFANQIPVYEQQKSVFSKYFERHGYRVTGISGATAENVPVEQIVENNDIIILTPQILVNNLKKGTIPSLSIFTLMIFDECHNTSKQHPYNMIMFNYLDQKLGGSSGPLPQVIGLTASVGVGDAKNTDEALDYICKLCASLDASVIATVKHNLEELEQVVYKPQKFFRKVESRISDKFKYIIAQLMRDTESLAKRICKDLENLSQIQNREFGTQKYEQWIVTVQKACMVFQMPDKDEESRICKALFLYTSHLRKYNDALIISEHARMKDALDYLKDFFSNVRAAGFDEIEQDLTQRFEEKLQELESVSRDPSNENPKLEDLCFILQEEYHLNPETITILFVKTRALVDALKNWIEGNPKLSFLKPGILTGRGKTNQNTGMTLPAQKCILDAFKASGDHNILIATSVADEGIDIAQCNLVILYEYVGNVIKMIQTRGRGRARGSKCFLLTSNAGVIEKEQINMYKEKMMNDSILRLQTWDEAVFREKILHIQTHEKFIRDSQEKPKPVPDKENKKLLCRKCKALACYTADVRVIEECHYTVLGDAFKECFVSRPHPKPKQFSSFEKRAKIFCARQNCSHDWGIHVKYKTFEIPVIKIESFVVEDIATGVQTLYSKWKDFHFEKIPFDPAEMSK
As to the kind of experiment: Limited trypsin digestion of RIG-I:RNA complexes. Format: biochemical. The settings on record: 2 h trypsin digestion, 2 mM AMP-PNP.

We go through three compounds from US12227769B2 (priority 2018, dated 2025).

As for `Nc1nccc2c1ncn2[C@@H]1O[C@H](CO)[C@@H](O)[C@H]1O` [3-deazaadenosine], the “inhibition of virus replication” value in assay [1] is “capable of inhibiting the replication of diverse viruses”.
Regarding Carbocyclic 3-deazaadenosine [Cc3Ado], the “effect on RSV spread (GFP) in HEp-2 cells” value in assay [2] is recorded as “inhibited rgRSV spread over 3 days”. In assay [3], the “effect on GFP signal in rgRSV-G1853A-G1857A-infected HAE cells” value is “the GFP signal was further reduced”.
With Poly(I.C), in assay [4], the “expression of RIG-I in RNA-transfected cells” value is “activated RIG-I expression in a dose-dependent manner”. In addition, in assay [5], the “trypsin-resistant 80-kDa RIG-I fragment” value is reported as “yielded an 80-kDa fragment”.
